Reference: the supplement of paper PMC10307832

Tests used:
Test in all cases: relative viability (nuclei count vs DMSO), 5 days (fraction); higher = more cells survive
NVP-TAE684 + Trametinib = compound: COc1cc(N2CCC(N3CCN(C)CC3)CC2)ccc1Nc1ncc(Cl)c(Nc2ccccc2S(=O)(=O)C(C)C)n1 [NVP-TAE684] + CC(=O)Nc1cccc(-n2c(=O)n(C3CC3)c(=O)c3c(Nc4ccc(I)cc4F)n(C)c(=O)c(C)c32)c1 [Trametinib] (partner 0.02 µM)
Procedure, shortened: (§1)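 Nuclei were stained with Hoechst during a one-step fixation (final 0.05% Triton X-100, 1% formaldehyde, 1 ug/ml Hoechst) carried out 5 days after dosing, then counted on 4× images. The cells, lung cancer lines in 1536-well plates, had been dosed by pin tool the day after seeding with one drug alone or a fixed anchor-drug dose plus five library-drug doses (not always all listed) in √10 steps. Relative viability is the nuclei count in treated wells divided by that in vehicle wells, and each value is the median of duplicate plates.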

[1] = compound: C1=CC=C2C(=C1)N=C(S2)C(C#N)C3=NC(=NC=C3)NCCC4=CN=CC=C4 + CS(=O)(=O)CCNCc1ccc(-c2ccc3ncnc(Nc4ccc(OCc5cccc(F)c5)c(Cl)c4)c3c2)o1 [Lapatinib] (partner 2 µM)
Procedure, shortened: as §1

NVP-TAE684 + Luminespib = compound: COc1cc(N2CCC(N3CCN(C)CC3)CC2)ccc1Nc1ncc(Cl)c(Nc2ccccc2S(=O)(=O)C(C)C)n1 [NVP-TAE684] + CCNC(=O)c1noc(-c2cc(C(C)C)c(O)cc2O)c1-c1ccc(CN2CCOCC2)cc1 [Luminespib] (partner 0.01 µM)
Procedure, shortened: as §1

[2] = compound: C1=CC=C2C(=C1)N=C(S2)C(C#N)C3=NC(=NC=C3)NCCC4=CN=CC=C4 + CC1(C)CCC(c2ccc(Cl)cc2)=C(CN2CCN(c3ccc(C(=O)NS(=O)(=O)c4ccc(N[C@H](CCN5CCOCC5)CSc5ccccc5)c(S(=O)(=O)C(F)(F)F)c4)cc3)CC2)C1 [Navitoclax] (partner 0.5 µM)
Procedure, shortened: as §1

Cell Line	relative viability (NVP-TAE684 + Trametinib; first compound 0.2 µM)	relative viability (NVP-TAE684 + Trametinib; first compound 0.6325 µM)	relative viability (NVP-TAE684 + Trametinib; first compound 2 µM)	relative viability ([1]; first compound 0.005 µM)	relative viability ([1]; first compound 0.01581 µM)	relative viability ([1]; first compound 0.05 µM)	relative viability ([1]; first compound 0.1581 µM)	relative viability ([1]; first compound 0.5 µM)	relative viability (NVP-TAE684 + Luminespib; first compound 0.2 µM)	relative viability (NVP-TAE684 + Luminespib; first compound 0.6325 µM)	relative viability (NVP-TAE684 + Luminespib; first compound 2 µM)	relative viability ([2]; first compound 0.005 µM)	relative viability ([2]; first compound 0.01581 µM)	relative viability ([2]; first compound 0.05 µM)	relative viability ([2]; first compound 0.1581 µM)	relative viability ([2]; first compound 0.5 µM)
LC-2-ad	0.881	0.926	0.669	0.648	0.976	0.946	1	0.634	1.01	0.918	0.465	0.358	0.497	0.447	0.581	0.351
LOU-NH91	0.783	0.714	0.626	0.799	0.758	0.688	0.739	0.724	0.305	0.339	0.296	0.682	0.724	0.578	0.633	0.641
NCI-H2009	0.302	0.234	0.178	0.899	0.892	0.977	1.11	1.02	0.925	1.05	0.944	1.13	1.17	1.14	1.22	1.21
NCI-H647	0.483	0.489	0.216		1.34	1.11	1.3	0.546	0.133	0.108	0.264		1.22	0.955	1.34	0.979
NCI-H1666	0.818	0.836	0.714	0.486	0.636	0.631	0.665	0.584	0.945	0.975	0.843	0.841	0.937	0.965	1.05	0.797
A-427	0.699	0.627	0.462	0.78	0.889	1.01	1.12	1.08	0.978	0.79	0.516	0.964	0.95	0.956	0.896	1.05
NCI-H2170	0.861	0.947	0.916		0.258	0.249	0.285	0.259	0.747	0.618	0.663		0.587	0.59	0.626	0.566
NCI-H1395	1.09	1.15	0.944	0.953		1.17	1.08	1.08	0.686	0.834	0.732	1.23		1.03	1.08	1.22
NCI-H1437	0.523	0.444	0.225	0.762	0.902	0.987	0.9	0.704	1.14	1.13	1.08	1.02	1.15	1.14	1.17	1.08
HCC-44	0.982	1.08	0.926	0.848	1.02	1.01	1.16	0.823		0.912	0.272	0.759	1.13	0.906	1.02	0.872
NCI-H1355	0.399	0.398	0.3	1.18	1.03	1	1.14	0.931	0.594	0.687	0.471	0.975	0.959	0.906	1.03	0.975
NCI-H1993	0.359	0.461	0.521	0.652	0.779	0.824	0.747	0.809		0.785	0.499	0.911	0.802	0.896	0.929	0.81
NCI-H1734	0.696	0.673	0.517	1.05	1.09	1.03	1.14	1.01	0.221	0.164	0.166	0.58	1.05	0.886	0.932	0.664
SK-MES-1	0.578	0.492	0.378	0.455	0.542	0.408	0.473	0.445	0.842	0.76	0.321	1.76	1.19	1.3	1.28	1.02
COR-L 105	0.439	0.42	0.313	0.362	0.336	0.342	0.372	0.369	0.674	0.798	0.317	0.819	0.753	0.599	0.667	0.729
EMC-BAC-2	0.89	0.822	0.47	0.845	0.855	0.826	1.02	0.879		1.21	0.824	0.823	1.19	1.14	1.2	1.01
NCI-H1915	0.298	0.304	0.507	0.681	0.975	1.01	1.14	0.835	0.631	0.821	0.699	0.802	0.805	0.762	0.77	0.775
CAL-12T	0.283	0.251	0.127	0.782			0.675	0.674	0.185	0.655	0.0938	0.993	1.38	1.11	1.35	0.993
NCI-H2085	0.579	0.503	0.4	0.83	0.737	0.763	0.891	0.761	0.435	0.39	0.294	0.946	1.09	1.09	1.15	0.981

Cell Line	relative viability (NVP-TAE684 + Trametinib; first compound 0.2 µM)	relative viability (NVP-TAE684 + Trametinib; first compound 0.6325 µM)	relative viability (NVP-TAE684 + Trametinib; first compound 2 µM)	relative viability ([1]; first compound 0.005 µM)	relative viability ([1]; first compound 0.01581 µM)	relative viability ([1]; first compound 0.05 µM)	relative viability ([1]; first compound 0.1581 µM)	relative viability ([1]; first compound 0.5 µM)	relative viability (NVP-TAE684 + Luminespib; first compound 0.2 µM)	relative viability (NVP-TAE684 + Luminespib; first compound 0.6325 µM)	relative viability (NVP-TAE684 + Luminespib; first compound 2 µM)	relative viability ([2]; first compound 0.005 µM)	relative viability ([2]; first compound 0.01581 µM)	relative viability ([2]; first compound 0.05 µM)	relative viability ([2]; first compound 0.1581 µM)	relative viability ([2]; first compound 0.5 µM)
LCLC-97TM1	0.202	0.219	0.09	0.971	0.803	0.897	0.954	0.674	0.706		0.128	0.382	0.429	0.339	0.596	0.288
NCI-H596	0.712	0.581	0.688	0.921	1.11	1.07	1.23	0.937	0.914	0.832	0.758	0.913	1.08	0.893	1.18	0.953
NCI-H2228	0.312	0.249	0.23	0.725	1.01	1.18	1.46	0.924	0.142	0.116	0.0834	0.915	1.39	0.827	0.997	0.954
PC-14	0.677	0.62	0.0712	0.305	0.331	0.303	0.454	0.296	0.157		0.144	0.808	1.13	1.09	1.09	0.851
H3255	0.569	0.611	0.631	0.225	0.227	0.234	0.261	0.251	0.897	0.828	0.765	0.591	0.424	0.567	0.689	0.624
LK-2		0.673	0.326		0.931	0.917	1.15	0.819	0.169	0.157	0.167		0.931	0.824	0.916	0.843
SW 1573	0.651	0.495	0.21	1.12	1.13	1.04	1.35	1.12	0.185	0.0996	0.0857	0.863	1.15		1.03	0.828
LU99A	0.579	0.616	0.349	0.704	1.02	0.886	1.17	0.976	0.301	0.259	0.253	0.691	0.968	0.777	0.948	0.866
NCI-H322M	0.589	0.447	0.294	0.545	0.487	0.592	0.687	0.504	0.779	0.751	0.432	1.24	1.24	1.23	1.49	1.18
COR-L23	0.547	0.484	0.222	0.629	1.15	1.01	1.29	0.71	0.909	0.457	0.152	0.929	0.94	1.1	1.04	1.15
NCI-H1793	0.468	0.303	0.414	0.748	0.647	0.668	0.828	0.792	0.164	0.168	0.144	0.31	0.398	0.519	0.456	0.509
HARA	0.575	0.69	0.155	0.692	0.862	0.643	1.01	0.676	0.991	0.517	0.389	1.09	1.16	1.14	1.22	1.21
LXF-289	0.608	0.7	0.624	0.803	0.914	0.915	1	0.864	0.583	0.776	0.425	0.857	0.972	0.95	1	0.892
201T	0.712	0.716	0.629	0.981	0.958	1.01	1.09	1.02	0.964	0.992	0.69	1.14	1.22	1.14	1.24	1.2
NCI-H520	0.73	0.695	0.204	0.672	0.818	1.01	1.15	0.819	0.189	0.219	0.219	0.929	1.25	1.03	1.26	1.19
RERF-LC-KJ	0.861	0.772	0.664	0.982	0.934	0.77	0.883	0.732	1.65	1.21	0.587	1.29	0.811	0.804	0.843	0.875
NCI-H1975	0.325	0.335	0.215	0.554	0.91	0.831	0.908	0.62	0.23	0.138	0.167	0.852	1.15	1.03	1.18	0.695
PC-3 [JPC-3]	0.721	0.572	0.58	0.439	0.441	0.423	0.484	0.429	0.614	0.639	0.601	0.776	0.835	0.731	0.819	0.843
EPLC-272H	0.296	0.25	0.243	0.784	0.642	1.02	1.15	0.684	0.185	0.382	0.217	0.94	1.05	1.14	1.04	1.08
